In ChEMBL document CHEMBL2157974, “Viridin analogs derived from steroidal building blocks” (Bioorg Med Chem Lett, 2012):

Tests used:
[1] = Lipophilicity, log P of the compound; format: physicochemical; details: octanol/water
[2] = target: PI3-kinase p110-alpha/p85-alpha (Homo sapiens, UniProt P42336); experiment: Inhibition of human recombinant P110alpha/p85alpha using phosphatidyl inositol as substrate after 1 hr by ADP-Glo Kinase assay; format: protein-complex assay
MCF7 = experiment: Cytotoxicity against human MCF7 cells after 72 hrs by MTS/PMS assay; format: functional, cell-based; details: MCF7, 72 h
[3] = Inhibition of PI3K

Chain of PI3-kinase p110-alpha/p85-alpha (P27986 whole entry): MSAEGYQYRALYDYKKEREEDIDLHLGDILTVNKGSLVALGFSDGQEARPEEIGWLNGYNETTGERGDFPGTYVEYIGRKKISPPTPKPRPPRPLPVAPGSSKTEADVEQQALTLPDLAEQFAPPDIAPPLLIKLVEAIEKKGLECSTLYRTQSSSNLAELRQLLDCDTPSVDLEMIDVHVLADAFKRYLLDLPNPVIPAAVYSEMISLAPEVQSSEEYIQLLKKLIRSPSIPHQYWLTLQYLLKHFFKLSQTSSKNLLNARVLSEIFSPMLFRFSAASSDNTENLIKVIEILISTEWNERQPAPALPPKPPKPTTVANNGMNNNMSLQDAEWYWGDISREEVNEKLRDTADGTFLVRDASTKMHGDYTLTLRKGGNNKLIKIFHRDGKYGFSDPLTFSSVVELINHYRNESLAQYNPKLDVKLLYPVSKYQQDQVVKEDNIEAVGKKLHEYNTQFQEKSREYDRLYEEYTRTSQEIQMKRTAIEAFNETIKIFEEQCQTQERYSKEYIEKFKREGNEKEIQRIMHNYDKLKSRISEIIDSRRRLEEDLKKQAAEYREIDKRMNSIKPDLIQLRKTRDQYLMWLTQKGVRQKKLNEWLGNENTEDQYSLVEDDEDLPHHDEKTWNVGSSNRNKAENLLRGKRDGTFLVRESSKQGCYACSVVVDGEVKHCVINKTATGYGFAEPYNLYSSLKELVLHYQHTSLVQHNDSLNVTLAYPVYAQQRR
Chain of PI3-kinase p110-alpha/p85-alpha (P42336 whole entry): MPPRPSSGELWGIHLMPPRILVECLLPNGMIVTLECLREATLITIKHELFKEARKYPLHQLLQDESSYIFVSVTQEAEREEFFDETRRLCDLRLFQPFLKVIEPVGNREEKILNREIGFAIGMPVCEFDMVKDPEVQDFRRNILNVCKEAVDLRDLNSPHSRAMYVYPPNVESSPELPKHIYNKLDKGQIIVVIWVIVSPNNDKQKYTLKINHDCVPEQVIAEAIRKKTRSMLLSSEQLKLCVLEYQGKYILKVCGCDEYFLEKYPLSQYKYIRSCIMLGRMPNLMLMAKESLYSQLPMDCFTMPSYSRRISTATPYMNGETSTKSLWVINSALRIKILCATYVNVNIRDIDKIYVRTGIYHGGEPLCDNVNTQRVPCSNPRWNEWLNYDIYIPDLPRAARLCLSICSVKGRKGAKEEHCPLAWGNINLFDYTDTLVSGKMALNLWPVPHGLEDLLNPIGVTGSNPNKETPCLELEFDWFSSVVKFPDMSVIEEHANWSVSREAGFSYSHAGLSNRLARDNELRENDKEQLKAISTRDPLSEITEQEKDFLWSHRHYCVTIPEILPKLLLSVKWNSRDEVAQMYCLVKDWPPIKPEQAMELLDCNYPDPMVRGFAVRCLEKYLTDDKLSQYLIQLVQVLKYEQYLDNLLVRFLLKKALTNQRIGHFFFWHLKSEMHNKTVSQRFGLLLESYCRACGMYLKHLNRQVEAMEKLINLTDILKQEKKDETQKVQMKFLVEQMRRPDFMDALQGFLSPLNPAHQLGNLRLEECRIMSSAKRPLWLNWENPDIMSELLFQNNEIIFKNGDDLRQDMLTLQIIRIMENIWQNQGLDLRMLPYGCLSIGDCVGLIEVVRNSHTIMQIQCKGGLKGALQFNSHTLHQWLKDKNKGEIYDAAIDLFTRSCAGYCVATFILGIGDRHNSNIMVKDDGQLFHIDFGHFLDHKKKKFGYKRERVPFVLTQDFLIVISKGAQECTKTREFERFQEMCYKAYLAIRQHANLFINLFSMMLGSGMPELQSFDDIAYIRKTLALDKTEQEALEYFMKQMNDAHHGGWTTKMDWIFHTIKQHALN

SMILES: C[C@]12CCC(=O)c3coc(c31)C(=O)[C@@H]1[C@@H]2CC[C@]2(C)C(=O)CC[C@@H]12
- logP [1]: 2.65
- IC50 [2]: 339 nM
- IC50 (MCF7): 22900 nM

SMILES: C[C@]12CCC(=O)c3coc(c31)C(=O)C[C@@H]2O (racemic)
- logP [1]: 0.58
- IC50 [2]: 178 nM
- IC50 (MCF7): > 100000 nM

SMILES: CO[C@@H]1C(=O)c2coc3c2[C@@](C)(c2ccc4c(c2C3=O)CCC4=O)[C@@H]1O [VIRIDIN]
- IC50 [3]: 2 nM

SMILES: COC[C@H]1OC(=O)c2coc3c2[C@@]1(C)C1=C(C3=O)[C@@H]2CCC(=O)[C@@]2(C)C[C@H]1OC(C)=O [WORTMANNIN]
- IC50 [3]: 2 nM
- IC50 (MCF7): > 100000 nM

SMILES: C=CCN/C=C1/C(=O)CC[C@@]2(C)C1=C(O)C(=O)[C@@H]1[C@@H]2CC[C@]2(C)C(=O)CC[C@@H]12
- IC50 [2]: 271 nM
- IC50 (MCF7): 37700 nM
